Results reported in patent US20140066365A1, “USE OF CALIXARENES ASSOCIATED WITH AN ANTIBIOTIC IN THE TREATMENT OF BACTERIAL INFECTIONS” (priority 2011, published 2014).
Values after ≈ are worked out from the molar mass of the structure shown. Where two headings read alike, the source gives them in different places.

Legend:
[1] = system: SaR1: Meticillin-Resistant Staphylococcus aureus without Associated Resistance; assay: Antibiogram, inhibition diameter (Table D1); assay type: cell-based; details: for Results: from diameter, against Dmin Dmax
Description: (§1) The bacterial and antibiogramidentification is carried out by the VITEK 2 system (bioMérieux)

[2] = system: SaR3: Meticillin-Resistant Staphylococcus aureus; assay: Antibiogram by the disk diffusion technique; assay type: cell-based; details: for CA-SFM Interpretation: Cd CA-SFM 2011; for CLSI Interpretation: Cd CLSI 2011; for EUCAST Interpretation: Cd EUCAST 2011; for Diameter: Table E1; for Results: Table E1, against Dmin Dmax; for diameter in mm: Table E2
Description: (§2) The bacterial and antibiogramidentification is carried out by the VITEK 2 system (bioMérieux) and by the disk diffusion technique

[3] = system: SaR4: Meticillin-Resistant Staphylococcus aureus; assay: Antibiogram, MIC by the VITEK 2 system; assay type: cell-based; details: for CA-SFM Interpretation / CLSI Interpretation / EUCAST Interpretation: from MIC; for CA-SFM Interpretation: Cc CA-SFM 2011; for CLSI Interpretation: Cc CLSI 2011; for EUCAST Interpretation: Cc EUCAST 2011; for MIC: Staphylococcus aureus
Description: as §2

[4] = system: MRSA strain without associated resistance (SaR1); assay: MIC of the compounds used alone, microdilution in a liquid medium (CLSI); assay type: cell-based, Staphylococcus aureus; details: Staphylococcus aureus, MRSA
Excerpt: (§3) The MICs of the antibiotics were previously defined for each strain, by the method of microdilution in a liquid medium (CLSI (Clinical and Laboratory Standards Institute), 2003).

[5] = system: MRSA strain having a resistance to the aminoglycosides and fluoroquinolones (SaR3); assay: as above; assay type: cell-based, Staphylococcus aureus; details: Staphylococcus aureus, MRSA
Excerpt: as §3

[6] = as above; assay type: cell-based, Staphylococcus aureus; details: Staphylococcus aureus, MRSA
Excerpt: as §3

[7] = system: SaR1: Meticillin-Resistant Staphylococcus aureus without Associated Resistance; assay: Antibiogram, MIC by the VITEK 2 system; assay type: cell-based; details: for CA-SFM Interpretation: Cc CA-SFM 2011; for CLSI Interpretation: Cc CLSI 2011; for EUCAST Interpretation: Cc EUCAST 2011; for Results: from MIC
Description: as §1

[8] = system: Staphylococcus aureus strain ATCC 29213 (wild type); assay: MIC of the compounds used alone, microdilution in a liquid medium (CLSI); assay type: cell-based; details: Staphylococcus aureus
Excerpt: as §3

[9] = system: Pseudomonas aeruginosa strain ATCC 27853 (wild type); assay: as above; assay type: cell-based; details: Pseudomonas aeruginosa
Excerpt: as §3

[10] = system: Escherichia coli strain ATCC 25922 (wild type); assay: as above; assay type: cell-based; details: Escherichia coli
Excerpt: as §3

[11] = system: EcR1: Penicillinase-Producing Escherichia coli without Associated Resistance; assay: Antibiogram by the disk diffusion technique; assay type: cell-based; details: Table A1
Description: (§4) 5.1 EcR1: Penicillinase-Producing Escherichia coli without Associated Resistance The bacterial and antibiogramidentification is carried out by the VITEK 2 system (bioMérieux) and by the disk diffusion technique.

[12] = system: EcR1: Penicillinase-Producing Escherichia coli without Associated Resistance; assay: Antibiogram, MIC by the VITEK 2 system; assay type: cell-based; details: for MIC: Escherichia coli
Description: as §4

[13] = system: EcR3: ESBL-Producing Escherichia coli; assay: Antibiogram by the disk diffusion technique; assay type: cell-based
Description: The bacterial and antibiogramidentification is carried out by the VITEK 2 system (bioMerieux) and by the disk diffusion technique

[14] = system: cephalosporinase-hyperproducing strain of Escherichia coli (EcR2); assay: MIC of the compounds used alone, microdilution in a liquid medium (CLSI); assay type: cell-based; details: Escherichia coli, antibiotic alone (second value of cell), read-out: Initial MICs
Excerpt: as §3

[15] = system: penicillinase-producing strain of Escherichia coli without associated resistance (EcR1); assay: as above; assay type: cell-based; details: Escherichia coli, antibiotic alone (second value of cell), read-out: Initial MICs
Excerpt: as §3

[16] = system: ESBL-producing strain of Escherichia coli, having an associated resistance to the aminoglycosides (EcR3); assay: as above; assay type: cell-based; details: Escherichia coli, antibiotic alone (second value of cell), read-out: Initial MICs
Excerpt: as §3

[17] = system: EcR2: Cephalosporinase-Hyperproducing Strain of Escherichia coli; assay: Antibiogram by the disk diffusion technique; assay type: cell-based
Description: The bacterial and antibiogramidentification is carried out by the VITEK 1 system (bioMérieux) and by the disk diffusion technique

[18] = antibiotic alone (second value of cell), SaR1, read-out: MIC
[19] = antibiotic alone (second value of cell), SaR3, read-out: MIC
[20] = antibiotic alone (second value of cell), SaR4, read-out: MIC
[21] = Staphylococcus aureus, SaR1, Table D1, read-out: MIC
[22] = ATCC29213, antibiotic alone (second value of cell), S. aureus ATCC 29213, read-out: Initial MICs

Structure (SMILES): CC[C@H]1OC(=O)[C@H](C)[C@@H](O[C@H]2C[C@@](C)(OC)[C@@H](O)[C@H](C)O2)[C@H](C)[C@@H](O[C@@H]2O[C@H](C)C[C@H](N(C)C)[C@H]2O)[C@](C)(O)C[C@@H](C)C(=O)[C@H](C)[C@@H](O)[C@]1(C)O [Erythromycin]
- Diameter [1]: 25 mm
- Results [1]: Susceptible
- CA-SFM Interpretation [2]: Susceptible
- CLSI Interpretation [2]: Susceptible
- EUCAST Interpretation [2]: Susceptible
- Diameter [2]: 25 mm
- Results [2]: Susceptible
- diameter in mm [2]: 25 mm
- Results ([3]; SaR4, Table F1, MIC): Resistant
- CA-SFM Interpretation ([3]; SaR4): Resistant
- CLSI Interpretation ([3]; SaR4): Resistant
- EUCAST Interpretation ([3]; SaR4): Resistant
- MIC ([3]; SaR4, Table F1, read-out: MIC): ≥ 8 mg/L
- MIC ([3]; SaR4, Table F2, MIC, read-out: MIC): ≥ 8 mg/L
- MIC [4, 18]: 0.5 µg/mL
- MIC [5, 19]: 0.5 µg/mL
- MIC [6, 20]: > 32 µg/mL
- CA-SFM Interpretation ([7]; SaR1): Susceptible
- CLSI Interpretation ([7]; SaR1): Susceptible
- EUCAST Interpretation ([7]; SaR1): Susceptible
- Results ([7]; SaR1, Table D1): Susceptible
- MIC mg/L ([7]; SaR1, Table D2): ≦0.25 mg/L
- MIC [7, 21]: ≤ 0.25 mg/L
- MIC [8, 22]: 0.5 mg/L

Structure (SMILES): [H]/N=C(\N/C(=N/[H])NCCCCCCNC(=N)NC(=N)Nc1ccc(Cl)cc1)Nc1ccc(Cl)cc1 [Chlorhexidine]
- MIC ([8]; ATCC29213, antiseptic alone, S. aureus ATCC 29213, read-out: Initial MICs (mg/L), antiseptic (ATS)): < 1 mg/L
- MIC ([9]; ATCC27853, antiseptic alone, P. aeruginosa ATCC 27853, read-out: Initial MICs (mg/L), antiseptic (ATS)): 4 mg/L
- MIC ([10]; ATCC25922, antiseptic alone, E. coli ATCC 25922, read-out: Initial MICs (mg/L), antiseptic (ATS)): < 1 mg/L

Structure (SMILES): CO/N=C(\C(=O)N[C@@H]1C(=O)N2C(C(=O)O)=C(COC(C)=O)CS[C@H]12)c1csc(N)n1 [Cefotaxime]
- Diameter ([11]; EcR1, disk diffusion): 30 mm
- Results ([11]; EcR1, interpretation of the diameter against Dmin Dmax): Susceptible
- CA-SFM Interpretation ([12]; EcR1, MIC against Cc CA-SFM 2011): Susceptible
- CLSI Interpretation ([12]; EcR1, MIC against Cc CLSI 2011): Susceptible
- EUCAST Interpretation ([12]; EcR1, MIC against Cc EUCAST 2011): Susceptible
- Results ([12]; EcR1, interpretation of the MIC, Table A1): Susceptible
- MIC ([12]; EcR1, Table A2, read-out: MIC mg/L (diameter in mm)): ≤ 1 mg/L
- MIC ([12]; EcR1, VITEK 2, Table A1, read-out: MIC): ≤ 1 mg/L
- CA-SFM Interpretation ([13]; Cd CA-SFM 2011): Resistant
- CLSI Interpretation ([13]; Cd CLSI 2011): Resistant
- EUCAST Interpretation ([13]; Cd EUCAST 2011): Intermediate
- Diameter ([13]; Table C1): 19 mm
- Results ([13]; Table C1, against Dmin Dmax): Intermediate
- diameter in mm ([13]; Table C2): 19 mm
- MIC [14]: 4 µg/mL
- MIC [15]: 0.06 µg/mL
- MIC [16]: 128 µg/mL
- MIC ([10]; ATCC25922, antibiotic alone (second value of cell), E. coli ATCC 25922, read-out: Initial MICs): 0.06 mg/L
- Diameter ([17]; EcR2, disk diffusion, Table B1): 24
- Results ([17]; EcR2, rows that print a diameter, Table B1): Intermediate
- Diameter ([17]; EcR2, Table B2, diameters): 24 mm
- CA-SFM Interpretation ([17]; EcR2, from diameter, CA-SFM 2011): Intermediate
- CLSI Interpretation ([17]; EcR2, from diameter, CLSI 2011): Intermediate
- EUCAST Interpretation ([17]; EcR2, from diameter, EUCAST 2011): Resistant

Structure (SMILES): N=C(N)c1ccc(OCCCCCCOc2ccc(C(=N)N)cc2)cc1 [Hexamidine]
- MIC ([8]; ATCC29213, read-out: Initial MICs (mg/L), antiseptic (ATS)): < 1 mg/L
- MIC ([9]; ATCC27853, read-out: Initial MICs (mg/L), antiseptic (ATS)): 32 mg/L
- MIC ([10]; ATCC25922, read-out: Initial MICs (mg/L), antiseptic (ATS)): 8 mg/L

Structure (SMILES): CN[C@H](CC(C)C)C(=O)N[C@H]1C(=O)N[C@@H](CC(N)=O)C(=O)N[C@H]2C(=O)N[C@H]3C(=O)N[C@H](C(=O)N[C@H](C(=O)O)c4cc(O)cc(O)c4-c4cc3ccc4O)[C@H](O)c3ccc(c(Cl)c3)Oc3cc2cc(c3O[C@@H]2O[C@H](CO)[C@@H](O)[C@H](O)[C@H]2O[C@H]2C[C@](C)(N)[C@H](O)[C@H](C)O2)Oc2ccc(cc2Cl)[C@H]1O [Vancomycin]
- Results [1]: Susceptible
- CA-SFM Interpretation [2]: Susceptible
- Results [2]: Susceptible
- diameter in mm [2]: 28 mm
- Results ([3]; SaR4, Table F1, MIC): Susceptible
- CA-SFM Interpretation ([3]; SaR4): Susceptible
- CLSI Interpretation ([3]; SaR4): Susceptible
- EUCAST Interpretation ([3]; SaR4): Susceptible
- MIC [3]: 1 mg/L (≈ 0.69 µM)
- MIC ([3]; read-out: MIC mg/L): 1 mg/L (≈ 0.69 µM)
- MIC [4]: 0.25 µg/mL
- MIC [5]: 0.25 µg/mL
- MIC [6]: 0.25 µg/mL
- CA-SFM Interpretation ([7]; SaR1): Susceptible
- CLSI Interpretation ([7]; SaR1): Susceptible
- EUCAST Interpretation ([7]; SaR1): Susceptible
- Results ([7]; SaR1, Table D1): Susceptible
- MIC mg/L ([7]; SaR1, Table D2): ≦1 mg/L
- MIC ([7]; Staphylococcus aureus, read-out: MIC mg/L): ≤ 1 mg/L
- MIC ([8]; ATCC29213, read-out: Initial MICs (mg/L)): 0.5 mg/L

Structure (SMILES): CC(=O)NC[C@H]1CN(c2ccc(N3CCOCC3)c(F)c2)C(=O)O1 [Linezolid]
- Diameter [1]: 29 mm
- Results [1]: Susceptible
- CA-SFM Interpretation [2]: Susceptible
- CLSI Interpretation [2]: Susceptible
- EUCAST Interpretation [2]: Susceptible
- Diameter [2]: 26 mm
- Results [2]: Susceptible
- diameter in mm [2]: 26 mm
- MIC [4, 18]: 2 µg/mL
- MIC [5, 19]: 2 µg/mL
- MIC [6, 20]: 2 µg/mL
- CA-SFM Interpretation ([7]; SaR1): Susceptible
- CLSI Interpretation ([7]; SaR1): Susceptible
- EUCAST Interpretation ([7]; SaR1): Susceptible
- Results ([7]; SaR1, Table D1): Susceptible
- MIC ([7]; SaR1, Table D2): 2 mg/L (≈ 5.93 µM)
- MIC [7, 21]: 2 mg/L (≈ 5.93 µM)
- MIC [8, 22]: 2 mg/L

Structure (SMILES): C[C@H]1COc2c(N3CCN(C)CC3)c(F)cc3c(=O)c(C(=O)O)cn1c23 [Levofloxacin]
- MIC [4, 18]: 0.25 µg/mL
- MIC [5, 19]: 8 µg/mL
- MIC [6, 20]: > 32 µg/mL
- MIC [8, 22]: 0.125 mg/L
